Measurements reported in patent US9067937B2 (priority 2012, dated 2015).
Counter-ions that a name gives are not always drawn.

Assays:
[1] = molecular target: MELK (Homo sapiens, UniProt Q14680); experiment: Kinase assay (IMAP fluorescence polarization, FITC-labeled histone H3 peptide); type: biochemical; conditions: 50 micro-M ATP
Summary of the method: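 Kinase (0.8 ng/μL) reacted with 100 nM FITC-histone H3 peptide and 50 μM ATP in 20 mM HEPES, 0.3 mM MgCl2, 2 mM DTT, 0.01% Tween-20, pH 7.4, for 1 hour at room temperature. Phosphorylation read by IMAP fluorescence polarization after adding binding solution; IC50 from four-parameter fit.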

[2] = tested on: 22Rv1 cells; experiment: Cell-based assay, anti-proliferative activity (Cell Counting Kit-8, 72 hours); set-up: species or system human; conditions: Homo sapiens, 22Rv1, 72 h, read-out: IC50 (μM) (22Rvl)
Summary of the method: (§1)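 Cells seeded at 2,000–3,000 cells/well and exposed to candidate MELK inhibitors for 72 hours; growth measured with Cell Counting Kit-8. IC50 values calculated from the growth read-out.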

[3] = tested on: A549 cells; experiment: as above; set-up: species or system human; conditions: Homo sapiens, A549, 72 h, read-out: IC50 (μM) (A549)
Summary of the method: as §1

[4] = tested on: DU4475 cells; experiment: as above; set-up: species or system human; conditions: Homo sapiens, DU-4475, 72 h, read-out: IC50 (μM) (DU4475)
Summary of the method: as §1

[5] = tested on: T47D cells; experiment: as above; set-up: species or system human; conditions: Homo sapiens, T47D, 72 h, read-out: IC50 (μM) (T47D)
Summary of the method: as §1

[6] = tested on: HT1197 cells; experiment: Cell-based assay, anti-proliferative activity, MELK-negative control (Cell Counting Kit-8, 72 hours); set-up: species or system human; conditions: Homo sapiens, HT1197, 72 h, read-out: IC50 (μM) (HTll97)
Method: 100 micro-L of cell suspension was seeded onto 96-well microtiter plate (ViewPlate-96FTC, PerkinElmer). The initial cell concentration of 22Rv1, T47D, A549, DU4475, and HT1197 were 3,000 cells/well, 2,000 cells/well and 2,500 cells/well, respectively. Cellular growth was determined using Cell Counting Kit-8 (DOJINDO) at 72 hours after the exposure of the candidate inhibitors. […] Accurate IC50 values were calculated as described previously.

Chain of MELK (Q14680 whole entry, looked up): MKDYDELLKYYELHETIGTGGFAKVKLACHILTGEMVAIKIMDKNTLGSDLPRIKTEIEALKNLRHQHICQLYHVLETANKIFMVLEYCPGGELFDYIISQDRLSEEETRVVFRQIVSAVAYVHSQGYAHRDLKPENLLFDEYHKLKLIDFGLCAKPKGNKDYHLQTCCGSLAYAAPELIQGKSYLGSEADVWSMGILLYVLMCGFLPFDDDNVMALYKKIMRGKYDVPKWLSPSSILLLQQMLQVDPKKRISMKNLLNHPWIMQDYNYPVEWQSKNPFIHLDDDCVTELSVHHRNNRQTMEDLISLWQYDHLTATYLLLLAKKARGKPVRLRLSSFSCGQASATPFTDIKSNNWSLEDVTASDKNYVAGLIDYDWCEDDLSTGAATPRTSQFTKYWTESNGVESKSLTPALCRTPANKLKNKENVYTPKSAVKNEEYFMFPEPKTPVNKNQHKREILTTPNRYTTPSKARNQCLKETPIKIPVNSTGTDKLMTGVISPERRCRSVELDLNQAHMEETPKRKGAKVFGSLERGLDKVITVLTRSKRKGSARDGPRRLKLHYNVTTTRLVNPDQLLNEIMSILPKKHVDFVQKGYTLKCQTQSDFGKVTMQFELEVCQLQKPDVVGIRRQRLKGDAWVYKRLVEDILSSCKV

SMILES	IC50 [1]	IC50 [2]	IC50 [3]	IC50 [4]	IC50 [5]	IC50 [6]
CNC1CCN(c2ccc(Nc3c(C(C)=O)cnc4ccc(-c5cc(F)c(O)c(Cl)c5)nc34)cn2)C1 (stereo not drawn) [Example 54, 1-(6-(3-Chloro-5-fluoro-4-hydroxyphenyl)-4-{6-[3-(methylamino)pyrrolidin-1-yl]pyridin-3-ylamino}-1,5-naphthyridin-3-yl)ethanone trihydrochloride]	0.012 µM	0.086 µM	0.17 µM	0.11 µM	0.04 µM	3.9 µM
CC(=O)c1cnc2ccc(-c3cc(Cl)c(O)c(Cl)c3)nc2c1N[C@H]1CC[C@H](CN(C)CCO)CC1 [Example 48, 1-[6-(3,5-Dichloro-4-hydroxyphenyl)-4-(trans-4-{[(2-hydroxyethyl)(methyl)amino]methyl}-cyclohexylamino)-1,5-naphthyridin-3-yl]ethanone dihydrochloride]	0.0006 µM	0.0092 µM	0.02 µM	0.0034 µM	0.0068 µM	0.57 µM
CC(=O)c1cnc2ccc(-c3cc(Cl)c(O)c(Cl)c3)nc2c1N[C@H]1CC[C@H](NC(=O)[C@@H]2CCCN2)CC1 [Example 75, (S)—N-{4-[3-Acetyl-6-(3,5-dichloro-4-hydroxyphenyl)-1,5-naphthyridin-trans-4-ylamino]-cyclohexyl}pyrrolidine-2-carboxamide dihydrochloride]	0.001 µM	0.099 µM	0.21 µM	0.021 µM	0.036 µM	8.4 µM
CC(=O)c1cnc2ccc(-c3cc(F)c(O)c(Cl)c3)nc2c1N[C@H]1CC[C@H](N(C)C)CC1 [Example 3, 1-{6-(3-Chloro-5-fluoro-4-hydroxyphenyl)-4-[trans-4-(dimethylamino)cyclohexylamino]-1,5-naphthyridin-3-yl}ethanone dihydrochloride]	0.0012 µM	0.006 µM	0.0091 µM	0.0033 µM	0.0026 µM	0.39 µM
CN(C)CCOc1ccc(Nc2c(S(C)(=O)=O)cnc3ccc(-c4cc(F)c(O)c(Cl)c4)nc23)cn1 [Example 25, 2-Chloro-4-(8-{6-[2-(dimethylamino)ethoxy]pyridin-3-ylamino}-7-(methylsulfonyl)-1,5-naphthyridin-2-yl)-6-fluorophenol dihydrochloride]	0.019 µM	2.8 µM	5.9 µM	0.74 µM	0.7 µM	21 µM
COc1cc(-c2ccc3ncc(S(C)(=O)=O)c(Nc4ccc(OCCN(C)C)nc4)c3n2)cc(Cl)c1O [Example 26, 2-Chloro-4-(8-(6-(2-(dimethylamino)-ethoxy)pyridin-3-ylamino)-7-(methylsulfonyl)-1,5-naphthyridin-2-yl)-6-methoxyphenol dihydrochloride]	0.01 µM	4.1 µM	3.1 µM	1.6 µM	1 µM	15 µM
CC(=O)c1cnc2ccc(-c3cc(F)c(O)c(Cl)c3)nc2c1N[C@H]1CC[C@H](CN2CCCC2)CC1 [Example 62, 1-(6-(3-Chloro-5-fluoro-4-hydroxyphenyl)-4-{[trans-4-(pyrrolidin-1-ylmethyl)cyclohexyl]amino}-1,5-naphthyridin-3-yl)ethanone dihydrochloride]	0.0009 µM	0.0073 µM	0.011 µM	0.0037 µM	0.0034 µM	0.091 µM
N[C@H]1CCCN(c2ccc(Nc3c(C(=O)C4CC4)cnc4ccc(-c5cc(F)c(O)c(Cl)c5)nc34)cn2)C1 [Example 83, (S)-{4-[6-(3-Aminopiperidin-1-yl)pyridin-3-ylamino]-6-(3-chloro-5-fluoro-4-hydroxyphenyl)-1,5-naphthyridin-3-yl}(cyclopropyl)methanone]	0.001 µM	0.025 µM	0.09 µM	0.015 µM	0.012 µM	2.7 µM
CC(=O)c1cnc2ccc(-c3cc(Cl)c(O)c(Cl)c3)nc2c1N[C@H]1CC[C@H](N(C)C)CC1 [Example 2, 1-{6-(3,5-Dichloro-4-hydroxyphenyl)-4-[trans-4-(dimethylamino)cyclohexylamino]-1,5-naphthyridin-3-yl}ethanone dihydrochloride]	0.0003 µM	0.0032 µM	0.004 µM	0.0015 µM	0.0018 µM	0.19 µM
CC(=O)c1cnc2ccc(N3CCC(O)C3)nc2c1N[C@H]1CC[C@H](CN2CCC(O)C2)CC1 (stereo partly drawn) [Example 77, 1-(6-(3-Hydroxypyrrolidin-1-yl)-4-{trans-4-[(3-hydroxypyrrolidin-1-yl)methyl]-cyclohexylamino}-1,5-naphthyridin-3-yl)ethanone]	0.74 µM	10 µM	10 µM	10 µM	10 µM	10 µM
CC(=O)c1cnc2ccc(-c3cc(F)c(O)c(Cl)c3)nc2c1Nc1cccc(CCN2CCCC2)c1 [Example 20, 1-[6-(3-Chloro-5-fluoro-4-hydroxyphenyl)-4-{3-[2-(pyrrolidin-1-yl)ethyl]phenylamino}-1,5-naphthyridin-3-yl]ethanone dihydrochloride]	0.14 µM	0.81 µM	0.31 µM	0.21 µM	0.5 µM	4.8 µM
CCC(=O)c1cnc2ccc(-c3cc(F)c(O)c(Cl)c3)nc2c1Nc1ccc(N2CCC[C@H](N)C2)nc1 [Example 208, (S)-1-(4{[6-(3-aminopiperidin-1-yl)pyridin-3-yl]amino}-6-(3-chloro-5-fluoro-4-hydroxyphenyl)-1,5-naphthyridin-3-yl)propan-1-one trihydrochloride]	0.0026 µM	0.026 µM	0.063 µM	0.021 µM	0.015 µM	0.86 µM
CN(C)Cc1ccc(Nc2c(S(C)(=O)=O)cnc3ccc(-c4cc(Cl)c(O)c(Cl)c4)nc23)cc1 [Example 16, 2,6-Dichloro-4-(8-{4-[(dimethylamino)methyl]phenylamino}-7-(methylsulfonyl)-1,5-naphthyridin-2-yl)phenol dihydrochloride]	0.0028 µM	0.17 µM	0.47 µM	0.031 µM	0.078 µM	4.4 µM
CC(=O)c1cnc2ccc(-c3c(C)n[nH]c3C)nc2c1N[C@H]1CC[C@H](CN(C)C)CC1 [Example 58, 1-(6-(3,5-Dimethyl-1H-pyrazol-4-yl)-4-{trans-4-[(dimethylamino)methyl]cyclohexylamino}-1,5-naphthyridin-3-yl)ethanone trihydrochloride]	1 µM	6.1 µM	3 µM	5.9 µM	1.6 µM	10 µM
CC(=O)c1cnc2ccc(-c3cc(Cl)c(O)c(Cl)c3)nc2c1N[C@H]1CC[C@H](CN2CC[C@@H](F)C2)CC1 [Example 209, 1-[6-(3,5-dichloro-4-hydroxyphenyl)-4-({4-[((R)-3-fluoropyrrolidin-1yl)methyl]cyclohexyl}amino)-1,5-naphthyridin-3-yl]ethanone dihydrochloride]	0.002 µM	0.032 µM	0.037 µM	0.01 µM	0.036 µM	0.12 µM
CC(=O)c1cnc2ccc(-c3cc(Cl)c(O)c(Cl)c3)nc2c1Nc1ccc(NCCN(C)C)nc1 [Example 38, 1-[6-(3,5-Dichloro-4-hydroxyphenyl)-4-{6-[2-(dimethylamino)ethylamino]pyridin-3-ylamino}-1,5-naphthyridin-3-yl]ethanone trihydrochloride]	0.011 µM	0.24 µM	0.26 µM	0.069 µM	0.11 µM	9.5 µM
CN(C)C[C@H]1CC[C@H](Nc2c(C(=O)CO)cnc3ccc(-c4cc(F)c(O)c(Cl)c4)nc23)CC1 [Example 204, 1-[6-(3-chloro-5-fluoro-4-hydroxyphenyl)-4-({trans-4-[(dimethylamino)methyl]cyclohexyl}amino)-1,5-naphthyridin-3-yl)]-2-hydroxyethanone dihydrochloride]	0.0013 µM	0.02 µM	0.058 µM	0.013 µM	0.014 µM	10 µM
